target: G protein-coupled receptor 88 (GPR88) (Homo sapiens, UniProt Q9GZN0); experiment: GPR88 functional assay: EC50 of Table 2 (GTPγS assay and cAMP HTRF assay described; table does not say which); format: cell-based; details: class symbol; read-out: Range (EC50)
Protocol: 96 well GTPγS assay plates were purchased from Perkin Elmer. Wheat Germ Agglutinin PVT SPA beads and ^35S-GTPγS were purchased from Amersham GDP, GTPγS and all buffer reagents were from Sigma. 384 well white NBS plates were purchased from corning. Pertussis toxin was purchased from Calbiochem. All cell culture reagents were purchased from Invitrogen. Forskolin was purchased from Sigma. The cAMP HTRF kit was purchased fron Cisbio International.
The GTPγS assay buffer consisted of 10 mM MgCl2, 180 mM NaCl, 200 uM GDP, 0.167 mg/mL DTT, 1 mM EGTA and 20 mM HEPES pH7.4. This buffer was used for dilution of membranes, beads, and ^35S GTPγS components. To each well of the 96 well assay plate 48 ul assay buffer, 2 ul of 100× compound, 50 ul membrane solution (0.2 ug/ul), 50 ul ^35S GTPγS solution (0.8 nM) and 50 ul of SPA beads (10 mg/mL). Non-specific binding was determined by the addition of cold GTPγS to control wells. The plates were sealed with clear sealing tape and incubated at room temperature for 1 hour. GTPγS activity was detected using a Wallac Micro-Beta Trilux liquid scintillation counter. Non-specific binding was determined using 10 uM cold GTPγS.
The cAMP HTRF assay is modified from the Cisbio International kit procedure 62AM4PEJ. Assay plates were prepared by stamping 0.1 ul of 100× compound stock solutions diluted in DMSO or DMSO alone into 384 well NBS plates. The cAMP HTRF assay was performed using cells in suspension. The cAMP HTRF assay buffer consisted of Hank's Balanced Salt Solution (HBSS), 2 mM CaCl2, 5 mM MgCl2, 20 mM HEPES and 1 mM 3-isobutyl-1-methylxanthine (IBMX) (added fresh at the time of assay). For pertussis toxin treatment pertussis toxin (100 ng/mL) was added to culture medium for 16 hours prior to assay. Confluent cells were disrupted with cell dissociation buffer count cells then centrifuged at 1000×g for 5 minutes. The cell pellet was resuspended in assay buffer alone for basal cAMP measurements or with 0.75 uM forskolin (added immediately prior to addition to wells) for addition to all other wells. Using a Multidrop 384 (Lab systems) 10 ul of cell suspension was added to each well containing compound or DMSO. The plates were incubated at room temperature for 30 minutes covered. During this time the cAMP standard curve was prepared as per manufacturer's instruction. At the end of the incubation 10 ul of anti-cAMP cryptate and 10 ul cAMP-XL, diluted in manufacturer's lysis buffer, were added to each well. The plated were incubated at room temperature for 60 minutes covered then read on an Envision plate reader (Perkin Elmer) and the 665 nm/620 nm fluorescence ratio determined Fluorescence ratio values were converted to molar cAMP concentrations from the standard curve using the GraphPad Prism program.

G protein-coupled receptor 88 (GPR88), sequence (Q9GZN0 whole entry, species assumed): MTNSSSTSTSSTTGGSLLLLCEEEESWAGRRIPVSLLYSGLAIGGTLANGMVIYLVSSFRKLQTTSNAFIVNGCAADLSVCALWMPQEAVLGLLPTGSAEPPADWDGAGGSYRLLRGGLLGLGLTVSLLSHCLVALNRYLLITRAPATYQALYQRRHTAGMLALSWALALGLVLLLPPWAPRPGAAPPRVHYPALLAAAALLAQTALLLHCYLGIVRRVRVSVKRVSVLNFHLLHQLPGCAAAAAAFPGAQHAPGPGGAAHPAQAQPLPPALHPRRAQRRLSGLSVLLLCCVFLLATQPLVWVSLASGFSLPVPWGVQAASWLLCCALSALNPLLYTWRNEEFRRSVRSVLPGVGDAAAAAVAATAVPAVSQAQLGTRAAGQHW

CCCC(C)COc1ccc([C@H](CNC(=O)[C@H](N)C2CC2)NC(=O)[C@@H](C)c2ccccc2)cc1 (stereo partly drawn) [Example 30, (2S)-N-((1R)-2-((R)-2-Amino-2-cyclopropylacetamido)-1-(4-(2-methylpentyloxy)phenyl)ethyl)-2-phenylpropanamide] and CCCC(C)COc1ccc([C@H](CNC(=O)[C@H](N)CCC)NC(=O)[C@@H](C)c2ccccc2)cc1 (stereo partly drawn) [Example 31, (2R)-2-Amino-N-((2R)-2-(4-(2-methylpentyloxy)phenyl)-2-((S)-2-phenylpropanamido)ethyl)pentanamide] fall in the same range of EC50: 100 to 200 nM for the first, 100 to 200 nM for the second.

CCCC(C)COc1ccc([C@H](CNC(=O)[C@@H](N)[C@@H](C)OC)NC(=O)[C@@H](C)c2ccccc2)cc1 (stereo partly drawn) [Example 32, (2S,3R)-2-Amino-3-methoxy-N-((2R)-2-(4-(2-methylpentyloxy)phenyl)-2-((S)-2-phenylpropanamido)ethyl)butanamide] and CCCC(C)COc1ccc([C@H](CNC(=O)[C@H](N)[C@@H](C)CC)NC(=O)[C@@H](C)c2ccccc2)cc1 (stereo partly drawn) [Example 33, (2R,3S)-2-Amino-3-methyl-N-((2R)-2-(4-(2-methylpentyloxy)phenyl)-2-((S)-2-phenylpropanamido)ethyl)pentanamide] fall in the same range of EC50: 100 to 200 nM for the first, 100 to 200 nM for the second.

CCCC(C)COc1ccc([C@H](CNC(=O)[C@H](N)Cc2cscn2)NC(=O)[C@@H](C)c2ccccc2)cc1 (stereo partly drawn) [Example 34, (2R)-2-Amino-N-((2R)-2-(4-(2-methylpentyloxy)phenyl)-2-((S)-2-phenylpropanamido)ethyl)-3-(thiazol-4-yl)propanamide] and CCCNC[C@H](NC(=O)[C@@H](C)c1ccccc1)c1ccc(OC[C@@H](C)CC)cc1 [Example 38, (S)-N-{(R)-1-[4-((S)-2-Methyl-butoxy)-phenyl]-2-propylamino-ethyl}-2-phenylpropionamide] fall in the same range of EC50: 100 to 200 nM for the first, 100 to 200 nM for the second.

Compared with CCCC(C)COc1ccc([C@H](CN2CCOCC2)NC(=O)[C@@H](C)c2ccccc2)cc1 (stereo partly drawn) [Example 35, (2S)-N-((1R)-1-(4-(2-Methylpentyloxy)phenyl)-2-morpholinoethyl)-2-phenylpropanamide], CC[C@H](C)COc1ccc([C@H](CN)NC(=O)[C@@H](C)c2ccccc2)cc1 [Example 37, (2S)-N-((1R)-2-Amino-1-[4-((S)-2-methylbutoxy)phenyl]-ethyl)-2-phenylpropionamide] is lower in EC50: 100 to 200 nM for the first, 39 to 99 nM for the second.

With CC[C@H](C)COc1ccc([C@@H](NC(=O)[C@@H](C)c2ccccc2)[C@@H](C)O)cc1 [Example 39, (S)-N-{(1R,2R)-2-Hydroxy-1-[4-((S)-2-methyl-butoxy)-phenyl]-propyl}-2-phenylpropionamide] the EC50 was 100 to 200 nM.

same assay, conditions: exact value given; read-out: Range (EC50)

For CC(C)COc1ccc([C@@H](NC(=O)[C@@H](C)c2ccccc2)[C@H]2CCCN2)cc1 [Example 40, (S)-N-((R)-(4-Isobutoxyphenyl)((R)-pyrrolidin-2-yl)methyl)-2-phenylpropanamide], the EC50 was 254 nM.
